The record followed here is ChEMBL document CHEMBL1201862, “PubChem BioAssay data set” (2004).

By EC50 is commonly meant the concentration giving half of the maximal effect. As usually defined, the IC50 is the concentration at which inhibition is half-maximal.

Structures are written as SMILES. Active and inactive are the calls of the source. Cut-off read from the data, not from the text of the source, for most assays here: actives have a measured EC50 and inactives only a lower limit. Some results are limits rather than exact numbers.

Test [1] can be described thus: luciferase reporter signal suppression in cells – H4 neuroglioma cells, luminescence, dose response (AID 1990). It is filed as functional, cell-based. (In general: In a reporter assay the amount or activity of a reporter protein is the signal.)
Test [2] has as its system Streptococcus sp. 'group A'. In words: Streptococcus pyogenes SK(-)GAS viability under kanamycin – luminescence, BacTiterGlo, confirmation, counter-screen for streptokinase expression inhibitor project, dose response (AID 1900). It is filed as functional, organism-based.
The test system of test [3] is BJ. Briefly: BJ-TERT fibroblast viability loss – cell-based, RAS-independent, luminescence, dose response (AID 1933). It is filed as functional. The conditions noted are these: Homo sapiens.
Test [4] is described as follows: Luminescence Cell-Based Dose Response HTS to Identify Inhibitors of 5'UTR Stem-Loop Driven Prion Protein mRNA Translation in H4 Neuroglioblastoma Cells. [Related pubchem assays: 1827 (Project Summary), 1813 (Primary HTS)]. It is filed as functional.
Test [5] deals with BJ. In words: cells. It is filed as functional, cell-based. As to conditions: Homo sapiens.
Test [6] can be described thus: Trypanosoma cruzi growth suppression in host cells – NIH3T3 host cells, beta-gal luminescence, confirmation (AID 2044).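 Note: intracellular parasites grown in NIH/3T3 mouse fibroblasts as host cells; luminescent beta-galactosidase reporter signal from transgenic T. cruzi replicating inside host cells; inhibitors lower the luminescence signal.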 It is filed as functional, cell-based.
Test [7] in a line: Luminescence-based dose response cell-based high throughput screening assay for cytotoxic compounds using the IEC-6 intestinal epithelial cell line. [Related pubchem assays: 1858 (Summary AID.), 1825 (Counterscreen.), 1907 (Confirmation screen.)]. It is filed as functional. Background: Counterscreens check selectivity or assay interference.
Test [8] can be described thus: NIH3T3 cell viability loss – ATP luminescence, mouse fibroblasts, counter-screen, dose response (AID 2010).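 Note: cells exposed to compound for about 90 hours before reading.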 It is filed as functional, cell-based.
Test [9] relates to BJ. In words: BJ-TERT-LT-ST fibroblast viability loss – cell-based, RAS-independent, luminescence, dose response (AID 1935).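 Note: BJ fibroblasts immortalized with TERT plus LT and ST oncogenes.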 It is filed as functional. The conditions noted are these: Homo sapiens.
Test [10] is described as follows: DRD fibroblast viability loss – cell-based, non-viral oncogenic, luminescence, dose response (AID 1934). It is filed as functional. As to conditions: Homo sapiens.
For test [11], the system named is Streptococcus. Briefly: GAS UMAA2166 growth inhibition – luminescence, BacTiterGlo, counter-screen for streptokinase expression inhibitor project, dose response (AID 1915).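 Note: potency for reduction of bacterial viability or growth.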 It is filed as functional, organism-based.
For another test, the target named is T1, Streptokinase A (Streptococcus pyogenes serotype M1, UniProt P10520).
T1 sequence (P10520 whole entry): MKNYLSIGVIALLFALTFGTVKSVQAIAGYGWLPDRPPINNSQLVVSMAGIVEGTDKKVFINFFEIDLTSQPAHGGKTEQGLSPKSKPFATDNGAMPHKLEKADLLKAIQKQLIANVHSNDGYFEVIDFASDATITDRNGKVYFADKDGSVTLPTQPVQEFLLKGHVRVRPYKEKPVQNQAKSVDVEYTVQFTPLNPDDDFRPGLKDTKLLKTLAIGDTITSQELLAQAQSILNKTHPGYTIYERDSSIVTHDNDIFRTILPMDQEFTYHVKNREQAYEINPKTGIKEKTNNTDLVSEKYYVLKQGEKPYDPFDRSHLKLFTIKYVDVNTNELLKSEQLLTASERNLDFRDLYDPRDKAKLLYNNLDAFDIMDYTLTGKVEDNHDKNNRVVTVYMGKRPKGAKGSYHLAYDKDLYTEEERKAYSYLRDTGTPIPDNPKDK
Briefly: Absorbance Microorganism-Based Dose Response Follow up to Identify Inhibitors of Streptokinase Expression. [Related pubchem assays: 1677 (Project Summary), 1915, 1914, 1902 (Retest at Dose), 1900 (Counter Screen), 1662 (Primary HTS)]. It is filed as functional, Streptococcus pyogenes M1 GAS.

The subject of test [12] is Streptococcus. Briefly: GAS bacterial viability reduction – luminescence, BacTiter-Glo, strain UMAA2166, counter-screen for streptokinase expression inhibitor project, dose response (AID 2477). It is filed as functional, organism-based.
Test [13] can be described thus: Luminescence Cell-Based Dose Confirmation HTS to Identify Activators of 5'UTR Stem-Loop Driven Alpha-Synuclein mRNA Translation in H4 Neuroglioblastoma Cells. [Related pubchem assays: 1829 (Project Summary), 1814 (Primary HTS)]. It is filed as functional.
Test [14] in a line: Luminescence Cell-Based Dose Response HTS to Identify Activators of Luciferase Translation or Activity in H4 […] Cells. [Related pubchem assays: 1829 (Project Summary), 1814 (Primary HTS)]. It is filed as functional.
The test system of the next test is H4. In words: Luminescence Cell-Based Dose Response HTS to Identify Activators of 5'UTR Stem-Loop Driven Prion Protein mRNA Translation in H4 Neuroglioblastoma Cells. [Related pubchem assays: 1829 (Project Summary), 1814 (Primary HTS)]. It is filed as functional. The conditions noted are these: Homo sapiens.
The target of test [15] is T2, Mannose-6-phosphate isomerase (Homo sapiens, UniProt P34949).
T2 sequence (P34949 whole entry): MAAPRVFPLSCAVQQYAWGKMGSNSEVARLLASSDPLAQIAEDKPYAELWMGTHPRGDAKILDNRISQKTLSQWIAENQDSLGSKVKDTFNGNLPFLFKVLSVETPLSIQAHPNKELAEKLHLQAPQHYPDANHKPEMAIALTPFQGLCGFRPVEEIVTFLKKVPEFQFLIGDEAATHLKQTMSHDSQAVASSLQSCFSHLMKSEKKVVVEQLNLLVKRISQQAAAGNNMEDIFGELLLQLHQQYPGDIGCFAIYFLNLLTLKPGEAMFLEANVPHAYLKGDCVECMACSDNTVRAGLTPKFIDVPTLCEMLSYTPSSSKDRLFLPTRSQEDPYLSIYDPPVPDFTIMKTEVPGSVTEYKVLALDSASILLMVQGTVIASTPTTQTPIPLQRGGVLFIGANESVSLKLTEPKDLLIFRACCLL
In words: MPI enzyme activity inhibition – biochemical, fluorescence intensity, coupled assay, primary screen (AID 1209).

Test [16] concerns the target T2, Mannose-6-phosphate isomerase. Briefly: MPI inhibition at elevated mannose 6-phosphate – biochemical, fluorescence intensity, high mannose 6-phosphate, primary screen (AID 1220).

Regarding `COc1ccccc1-c1nnc(Nc2nc3c(OC)cccc3s2)o1`, the EC50 in [1] was 8.66 µM (inconclusive); in test [2], 1.67 µM (active); with BJ [3], 0.904 µM (active); in test [4], 5.65 µM (active); with BJ [5] it was 0.635 µM (active); in test [6], 0.559 µM (active). Moreover, the EC50 is 0.576 µM (active) in [8], 0.457 µM (inconclusive) in the test on BJ [9], 28.9 µM (inconclusive) in test [10] and > 150 µM (inconclusive) in the test with Streptococcus [11]. Also, the IC50 in [7] was 0.886 µM (active).
For the compound `COc1ccc(S(=O)(=O)c2ccc(NC(=O)c3ccccc3Cl)cc2C#N)cc1`, the figures for the EC50 at Streptokinase A and in the test with Streptococcus [12] were 5.44 µM (active) and 40.5 µM (active), respectively.
Consider `c1ccc(-c2cc(N3CCCCCC3)n[nH]2)cc1`, for which the figures for the half-maximal effective concentration (EC50) (in test [13]; in test [14]; in the test with H4) were 5.19 µM (active), 30.9 µM (active) and 9.81 µM (active), respectively. In addition, the IC50 in test [15] and in test [16] was > 50 µM (not active) each time.
